Each structure is given as a SMILES string.

The text below walks through data of patent publication US4937266A, “Inhibitory agent of hepatic fibrosis” (priority 1988, dated 1990).

The test system of one experiment is prolyl hydroxylase. To be noted: rabbit, in vivo.
Another experiment deals with medicinal fatty liver. As to conditions: reported in JP-B-No. 60-19891; cited from earlier work.
The subject of a further experiment is viral hepatitis. To be noted: reported in JP-A-No. 58-35118; cited from earlier work.

Excerpt for prolyl hydroxylase: Male Japanese white rabbits weighing 2.5 kg were used. A cholesterol group consisting of 8 rabbits were fed on RC-4 diet (sold by Oriental Kobo Co., Ltd.) containing 0.5% cholesterol for 10 weeks. […] A control group consisting of 3 rabbits were fed on RC-4 diet for the same period.
The rabbits were sacrificed by exsangunation from abdominal aorta under anesthesia with pentobarbital and the liver and kidney were removed. A portion of the each organ was homogenized with 9 times the volume of a 0.01M Tris-hydrochloric acid buffer solution (pH 7.4) containing 10^-5 M EDTA and 10^-4 M DTT in Polytron homogenizer. The prolyl hydroxylase activity was expressed as radioactivity of ^3 H2 O released per milligram of protein when ^3 H-proline labeled unhydroxylated collagen was incubated as a substrate for 30 minutes. […] Incubation was carried out at 30° C. for 30 minutes. 100 μl of a 55% trichloroacetic acid aqueous solution was added thereto to stop the reaction. The ^3 H2 O of the reaction mixture was separated by vacuum distillation of the whole reaction mixture. An aliquot (800 μl) of the distillate was mixed with 10 ml of Aquasol and counted for the radioactivity in a liquid scintillation counter. The protein amount was measured by BIO.RAD Protein Assay Kit using bovine serum albumin (BSA) as a standard.

As for `CC(C)(CO)[C@@H](O)C(=O)NCCC(=O)NCCSSCCNC(=O)CCNC(=O)[C@H](O)C(C)(C)CO` [Pantethine, D-bis-(N-pantothenyl-β-aminoethyl)-disulfide], in the experiment on prolyl hydroxylase, the “Prolyl Hydroxylase Activity, Liver” value is reported as 729.3 ± 45.6 cpm/mg-protein and the “prolyl hydroxylase activity in the liver (in words)” value is “decreased nearly to the level of the normal group”. In addition, the “effect on medicinal fatty liver (in words)” value with medicinal fatty liver is “effective”. In the experiment on viral hepatitis, the “effect on viral hepatitis (in words)” value is “effective”.
